Experimental data: US20240358693A1, “METHODS OF TREATING PAIN” (Aisa Pharma, Inc., priority 2023, published 2024)

Test system: participants with SSc-RP
Assay: Frequency of weekly RP attacks (all attacks; primary efficacy endpoint)
Format: in vivo, human
Source text: Percent change from baseline evaluation for frequency of weekly RP attacks were or will be used as the primary efficacy variable. The sponsor-developed participant-informed diary will be used to record data. Frequency of weekly RP attacks is defined as the total number of RP attacks divided by the number of days with available diary data within the last 7 days of each dosing period then multiplied by 7. Total number of RP attacks during the last 7 days of screening period divided by the number of days with available data then multiplied by 7 will be used as baseline for the analysis of all periods. The variable will be calculated as follows:
Percentage change={(weekly RP attacks for the last 7 days of each dosing period−Baseline weekly RP attacks)/Baseline weekly RP attacks}*100%.
Absolute change=weekly RP attacks for the last 7 days of each dosing period−Baseline weekly RP attacks
Percent change from baseline evaluation for frequency of weekly RP attacks was and will be the primary efficacy endpoint. Frequency of weekly RP attacks is defined as the total number of RP attacks divided by the number of days with available diary data within the last 7 days of each dosing period then multiplied by 7. Total number of RP attacks during the last 7 days of screening period divided by the number of days with available data then multiplied by 7 will be used as baseline for the analysis of all periods.
Percent change from baseline evaluation for frequency of weekly RP attacks were the primary efficacy endpoint. Data collected in the last 7 days of each dosing period were used for this analysis. Screening assessments were used as baseline for the analysis of all periods. No multiple comparison adjustment were used to control alpha for the multiple comparisons. Mixed effects model were used for analysis of the primary endpoint according to the crossover design. Other efficacy endpoints of continuous variables were analyzed using similar methodology. For nominal data, chi-square tests were applied. Generalized Estimating Equations method were used, as appropriate, for adjusting for potential confounding factors. In addition, the final analysis assessed whether in this study of severe Raynaud's disease participants, the minimally important difference, previously concluded of 14-15 points on the 100 point RCS scale had been achieved in the cilnidipine dose group. It also recorded the percentage of participants achieving a PASS (34 point difference from baseline on a 0-100 VAS) in each treatment group.

[1] = Tadalafil 5 mg, n=1, Excluding Outliers, by Baseline RCS, second subgroup, ITT Part A
[2] = all attacks, excluding outliers, cilnidipine 10 mg, tadalafil 5 mg daily
[3] = all attacks, by baseline RCS, second subgroup, cilnidipine 10 mg, tadalafil 5 mg daily
[4] = all attacks, cilnidipine 10 mg, tadalafil 5 mg daily

CN1CC(=O)N2[C@H](c3ccc4c(c3)OCO4)c3[nH]c4ccccc4c3C[C@@H]2C1=O [Tadalafil, tadalafil]
Weekly RP Attacks (All Attacks) Change from Baseline, Mean [1]: 6.00 | Weekly RP Attacks (All Attacks) Change from Baseline, Median [1]: 6.00 | Weekly RP Attacks (All Attacks) Percent Change from Baseline, Mean [1]: 46.15% | Weekly RP Attacks (All Attacks) Percent Change from Baseline, Median [1]: 46.15% | Weekly RP Attacks (All Attacks), Mean [1]: 19.00 | Weekly RP Attacks (All Attacks), Median [1]: 19.00 | Weekly RP Attacks Change from Baseline, Max [2]: 6.0, 6.0 | Weekly RP Attacks Change from Baseline, Mean (SD) [2]: 6.00 | Weekly RP Attacks Change from Baseline, Median [2]: 6.00 | Weekly RP Attacks Change from Baseline, Min [2]: 6.0, 6.0 | Weekly RP Attacks Change from Baseline, Q1 [2]: 6.00, 6.00 | Weekly RP Attacks Change from Baseline, Q3 [2]: 6.00, 6.00 | Weekly RP Attacks Percent Change from Baseline, Max [2]: 46.2, 46.2% | Weekly RP Attacks Percent Change from Baseline, Mean (SD) [2]: 46.15% | Weekly RP Attacks Percent Change from Baseline, Median [2]: 46.15% | Weekly RP Attacks Percent Change from Baseline, Min [2]: 46.2, 46.2% | Weekly RP Attacks Percent Change from Baseline, Q1 [2]: 46.15, 46.15% | Weekly RP Attacks Percent Change from Baseline, Q3 [2]: 46.15, 46.15% | Weekly RP Attacks, Max [2]: 19.0, 19.0 | Weekly RP Attacks, Mean (SD) [2]: 19.00 | Weekly RP Attacks, Median [2]: 19.00 | Weekly RP Attacks, Min [2]: 19.0, 19.0 | Weekly RP Attacks, Q1 [2]: 19.00, 19.00 | Weekly RP Attacks, Q3 [2]: 19.00, 19.00 | Weekly RP Attacks Change from Baseline, Max [3]: 6.0 | Weekly RP Attacks Change from Baseline, Mean [3]: 3.00 | Weekly RP Attacks Change from Baseline, Median [3]: 3.00 | Weekly RP Attacks Change from Baseline, Min [3]: 0.0 | Weekly RP Attacks Change from Baseline, Q1 [3]: 0.00 | Weekly RP Attacks Change from Baseline, Q3 [3]: 6.00 | Weekly RP Attacks Percent Change from Baseline, Max [3]: 46.2% | Weekly RP Attacks Percent Change from Baseline, Mean [3]: 23.08% | Weekly RP Attacks Percent Change from Baseline, Median [3]: 23.08% | Weekly RP Attacks Percent Change from Baseline, Min [3]: 0.0% | Weekly RP Attacks Percent Change from Baseline, Q1 [3]: 0.00% | Weekly RP Attacks Percent Change from Baseline, Q3 [3]: 46.15% | Weekly RP Attacks, Max [3]: 19.0 | Weekly RP Attacks, Mean [3]: 13.00 | Weekly RP Attacks, Median [3]: 13.00 | Weekly RP Attacks, Min [3]: 7.0 | Weekly RP Attacks, Q1 [3]: 7.00 | Weekly RP Attacks, Q3 [3]: 19.00 | Weekly RP Attacks Change from Baseline, Max [4]: 6.0 | Weekly RP Attacks Change from Baseline, Mean (SD) [4]: 3.00 (4.243) | Weekly RP Attacks Change from Baseline, Median [4]: 3.00 | Weekly RP Attacks Change from Baseline, Min [4]: 0.0 | Weekly RP Attacks Change from Baseline, Q1 [4]: 0.00 | Weekly RP Attacks Change from Baseline, Q3 [4]: 6.00 | Weekly RP Attacks Percent Change from Baseline, Max [4]: 46.2% | Weekly RP Attacks Percent Change from Baseline, Mean (SD) [4]: 23.08 (32.636) Percent | Weekly RP Attacks Percent Change from Baseline, Median [4]: 23.08% | Weekly RP Attacks Percent Change from Baseline, Min [4]: 0.0% | Weekly RP Attacks Percent Change from Baseline, Q1 [4]: 0.00% | Weekly RP Attacks Percent Change from Baseline, Q3 [4]: 46.15% | Weekly RP Attacks, Max [4]: 19.0 | Weekly RP Attacks, Mean (SD) [4]: 13.00 (8.485) | Weekly RP Attacks, Median [4]: 13.00 | Weekly RP Attacks, Min [4]: 7.0 | Weekly RP Attacks, Q1 [4]: 7.00 | Weekly RP Attacks, Q3 [4]: 19.00
